This note sets out measurements from patent publication US11046697B2, “Compounds and compositions useful for treating disorders related to NTRK” (BLUEPRINT MEDICINES CORPORATION, priority 2015, dated 2021).

Structures are written as SMILES. Where two headings read alike, the source gives them in different places.

Experiment [1] concerns KM12 wild type colon carcinoma cell line harboring the TPM3-NTRK1 fusion protein. As to the kind of experiment: NTRK wild type cellular assay (CellTiter-Glo growth inhibition). The format is cell-based. The following applies: 72 hr, CellTiter-Glo, read-out: KM12 (WT) IC50. On the procedure: (§1) NTRK Wild Type and G595R Mutant Cellular Assays Protocol
(§2) KM12 wild type colon carcinoma cell line harboring the TPM3-NTRK1 fusion protein was obtained from the National Cancer Institute (NCI). This line has been previously shown to be dependent upon the NTRK activity derived from the NTRK fusion protein for growth and survival. […] Cells were first plated in 384-well plates at 1000 cells/well in complete media (10% FBS and 1% pen/strep) and incubated overnight at 37° C. Cells were then dosed with test articles at varying concentrations using the Bravo liquid handling system. […] Each compound was run in duplicate per plate. […] 72 hr after dosing, assay plates were developed using CellTiter-Glo (Promega) and resultant luminescence was read on the Envision plate reader. IC50 determinations were calculated using a 4-parameter curve fitting algorithm

Experiment [2] deals with KM12 Cliff (G595R) cell line. As to the kind of experiment: NTRK G595R mutant cellular assay (CellTiter-Glo growth inhibition). It counts as cell-based. The following applies: 72 hr, CellTiter-Glo. As for the experimental part:
as §1, §2

Experiment [3] addresses T1, wild type NTRK1 enzyme (Homo sapiens, UniProt P04629).
T1 construct: purchased BPS Bioscience 40280
As to the kind of experiment: NTRK1 Wild Type Assay at 1 mM ATP. It counts as biochemical. The following applies: 1 mM ATP; read-out: Enz NTRK1 IC50. As for the experimental part:
NTRK1 Wild Type Assay at 1 mM ATP
The reaction was stopped by the addition of 70 μL of Stop buffer (100 mM HEPES pH 7.5, 0.015% Brij 35, 35 mM EDTA and 0.2% of Coating Reagent 3 (Caliper Lifesciences)). The plate was then read on a Caliper EZReader 2 (protocol settings: −1.7 psi, upstream voltage −500, downstream voltage −3000, post sample sip 35s).

T1 sequence (P04629 440-796 limits assumed): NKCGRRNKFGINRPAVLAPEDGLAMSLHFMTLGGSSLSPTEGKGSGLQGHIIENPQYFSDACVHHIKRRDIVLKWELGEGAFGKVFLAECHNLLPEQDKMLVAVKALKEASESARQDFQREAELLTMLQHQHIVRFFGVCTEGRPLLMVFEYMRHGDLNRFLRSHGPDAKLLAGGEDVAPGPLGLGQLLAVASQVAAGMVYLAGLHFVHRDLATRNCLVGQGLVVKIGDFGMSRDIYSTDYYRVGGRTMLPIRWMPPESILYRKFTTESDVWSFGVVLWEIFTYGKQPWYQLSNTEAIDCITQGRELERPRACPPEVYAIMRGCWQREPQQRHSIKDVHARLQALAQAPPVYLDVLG

For the compound `O=C(c1n[nH]c2ncnc(N[C@@H]3C[C@@H](C(F)F)C[C@H]3O)c12)N1C[C@@H](F)C[C@@H]1c1cc(F)ccc1F` [Compound 226, (4-(((1R,2R,4R)-4-(difluoromethyl)-2-hydroxycyclopentyl)amino)-1H-pyrazolo[3,4-d]pyrimidin-3-yl)((2R,4S)-2-(2,5-difluorophenyl)-4-fluoropyrrolidin-1-yl)methanone], the IC50 in experiment [1] (Homo sapiens, KM12, 72 h) was below 10 nM; in experiment [2] (Homo sapiens, KM12, 72 h) it was below 10 nM; in experiment [3], below 10 nM.

For `Cc1ccc(F)cc1CNC(=O)c1n[nH]c2ncnc(N[C@@H]3CC[C@@H](O)[C@H]3O)c12` [Compound 2], the IC50 is 100 to 1000 nM in experiment [1] (Homo sapiens, KM12, 72 h); 100 to 1000 nM in experiment [2] (Homo sapiens, KM12, 72 h); 100 to 1000 nM in experiment [3].

For `N#C[C@H]1C[C@H](c2cc(F)ccc2F)N(C(=O)c2n[nH]c3ncnc(N[C@@H]4CCC[C@H]4O)c23)C1` [Compound 79], the IC50 in experiment [1] (Homo sapiens, KM12, 72 h) was below 10 nM; in experiment [2] (Homo sapiens, KM12, 72 h), 10 to 100 nM; in experiment [3] it was below 10 nM.

Consider `CN(Cc1cc(F)cnc1Cl)C(=O)c1n[nH]c2ncnc(N[C@@H]3CCC[C@@H](O)[C@H]3O)c12` [Compound 161], for which the IC50 in experiment [1], in experiment [2] and in experiment [3] was 10 to 100 nM throughout.

`CN(Cc1cccc(C#N)c1)C(=O)c1n[nH]c2ncnc(N[C@@H]3CC[C@@H](O)[C@H]3O)c12` [Compound 134]: the IC50 in experiment [1], in experiment [2] and in experiment [3] was 100 to 1000 nM in each case.

For the compound `O=C(c1n[nH]c2ncnc(N[C@H]3[C@H](O)[C@H](O)[C@@H]4C[C@@H]43)c12)N1C[C@@H](F)C[C@@H]1c1cc(F)ccc1F` [Compound 104], the IC50 is below 10 nM in experiment [1] (Homo sapiens, KM12, 72 h); below 10 nM in experiment [2] (Homo sapiens, KM12, 72 h); below 10 nM in experiment [3].

Regarding `CN(Cc1cc(F)cnc1Cl)C(=O)c1n[nH]c2ncnc(N[C@@H]3CC[C@@H](O)[C@H]3O)c12` [Compound 60], the IC50 in experiment [1] (Homo sapiens, KM12, 72 h) was 10 to 100 nM; in experiment [2] (Homo sapiens, KM12, 72 h), 10 to 100 nM; in experiment [3], 10 to 100 nM.

Turning to `O=C(c1n[nH]c2ncnc(N[C@@H]3COCC[C@H]3O)c12)N1C[C@@H](F)C[C@@H]1c1cncc(F)c1` [Compound 74], the IC50 was 10 to 100 nM in experiment [1] (Homo sapiens, KM12, 72 h); 10 to 100 nM in experiment [2] (Homo sapiens, KM12, 72 h); below 10 nM in experiment [3].

Regarding `O=C(c1n[nH]c2ncnc(N[C@H]3[C@H](O)[C@H](O)[C@@H]4C[C@@H]43)c12)N1C[C@@H](F)C[C@@H]1c1cc(F)ccc1OC(F)F` [Compound 239], the IC50 in experiment [1] was below 10 nM; in experiment [2], 10 to 100 nM; in experiment [3], below 10 nM.

`CN(Cc1cc(F)cc(OC(F)F)c1)C(=O)c1n[nH]c2ncnc(N[C@@H]3CC[C@@H](O)[C@H]3O)c12` [Compound 179]: the IC50 in experiment [1] was 10 to 100 nM; in experiment [2], 100 to 1000 nM; in experiment [3], 10 to 100 nM.

In the case of `COc1cc(F)cc(CN(C)C(=O)c2n[nH]c3ncnc(N[C@@H]4CC[C@@H](O)[C@H]4O)c23)c1` [Compound 48], the IC50 is 10 to 100 nM in experiment [1] (Homo sapiens, KM12, 72 h); 100 to 1000 nM in experiment [2] (Homo sapiens, KM12, 72 h); 10 to 100 nM in experiment [3].

On to `CS(=O)(=O)[C@H]1C[C@@H](O)[C@H](Nc2ncnc3[nH]nc(C(=O)NCc4cc(F)ccc4F)c23)C1` [Compound 97, N-(2,5-difluorobenzyl)-4-(((1R,2R,4R)-2-hydroxy-4-(methylsulfonyl)cyclopentyl)amino)-1H-pyrazolo[3,4-d]pyrimidine-3-carboxamide], for which the IC50 is 10 to 100 nM in experiment [1] (Homo sapiens, KM12, 72 h); 100 to 1000 nM in experiment [2] (Homo sapiens, KM12, 72 h); below 10 nM in experiment [3].

On to `O=C(c1n[nH]c2ncnc(N[C@@H]3COC[C@@H](O)[C@H]3O)c12)N1C[C@@H](F)C[C@@H]1c1cc(F)ccc1Cl` [Compound 222], for which the half-inhibitory concentration (IC50) was 10 to 100 nM in experiment [1] (Homo sapiens, KM12, 72 h); 10 to 100 nM in experiment [2] (Homo sapiens, KM12, 72 h); below 10 nM in experiment [3].

`O=C(c1n[nH]c2ncnc(N[C@@H]3C=C[C@@H](O)[C@H]3O)c12)N1C[C@@H](F)C[C@@H]1c1cc(F)ccc1OC(F)F` [Compound 235]: the IC50 in experiment [1] is 10 to 100 nM; in experiment [2], 10 to 100 nM; in experiment [3], below 10 nM.

With `O=C(c1n[nH]c2ncnc(N[C@H]3[C@H](O)[C@H](O)[C@@H]4C[C@@H]43)c12)N1C[C@@H](F)C[C@@H]1c1cc(F)cc(F)c1` [Compound 188], the IC50 is below 10 nM in experiment [1] (Homo sapiens, KM12, 72 h); below 10 nM in experiment [2] (Homo sapiens, KM12, 72 h); below 10 nM in experiment [3].

For the compound `O=C(c1n[nH]c2ncnc(N[C@@H]3CC[C@@H](O)[C@H]3O)c12)N1C[C@@H](F)C[C@@H]1c1cc(F)cc(Cl)c1` [Compound 127], the IC50 was below 10 nM in experiment [1] (Homo sapiens, KM12, 72 h); below 10 nM in experiment [2] (Homo sapiens, KM12, 72 h); below 10 nM in experiment [3].

`N#C[C@H]1C[C@@H](O)[C@H](Nc2ncnc3[nH]nc(C(=O)N4C[C@@H](F)C[C@@H]4c4cncc(F)c4)c23)C1` [Compound 166]: the IC50 in experiment [1] is 100 to 1000 nM; in experiment [2], 100 to 1000 nM; in experiment [3], below 10 nM.
